Test system: potato protoplasts (protoplast-derived cells)
Assay: Sulfentrazone kill curve with cell suspension and shoot tip-derived protoplasts
Format: cell-based
Conditions: for Microcallus formation: exposed one month; for # Of calli in 3 beads, # / # Of calli in 3 beads, %: Non treated protoplast + PEG; for # Of calli in 3 beads, # / # Of calli in 3 beads, % / # of calli in beads, # / # of calli in beads, %: one month; for # Of calli in 3 beads, % / # of calli in beads, %: relative to 0.0 μM; for # of calli in beads, # / # of calli in beads, %: Stop-GFP + Correcting GRON protoplasts
Procedure: Herbicide selection experiments were performed to determine the concentration of herbicide necessary to kill protoplast derived microcalli in a defined treatment period. […] The herbicide was suspended in DMSO, with the final concentration of DMSO in the herbicide treatments being 1%. Development of cells was evaluated under the microscope once a week. […]
Therefore, new kill curves were initiated with lower concentrations of 0, 0.5, 0.6, 0.7 and 0.8 μM of sulfentrazone, shown in Table 1.3.
About 200 shoot tips of 2-8 week-old in vitro shoots that have been cultured under a regular day/night regime, or, preferably were kept for two days before protoplast isolation in the dark, shoots may be cut into small pieces with a scalpel in a petri dish with sterile water. After all tips have been cut, the water is replaced with protoplast culture medium, preferably BN (B5 Salts and Vitamins (Phytotechnology Laboratories), glucose 20 g/L, mannitol 70 g/L, alpha naphthalene acetic acid 5 mg/L, additional CaCl2×2H2O 600 mg/L, casein hydrolysate 250 mg/L, cystcine-HCL 10 mg/L, polyvinylpyrrolidone (MW 10,000) 5 g/L. After approximately 1-2 h, the protoplast culture medium is replaced with enzyme solution, for example consisting of medium BN, in which 0.5% (w/v) Cellulase YC and 0.75% (w/v) Maccrozyme R10 (both from Karlan Research Products, Cottonwood, Ariz.), 1 g/L bovine serum albumin, and 1 g/L 2-morpholinoethanesulfonic acid are dissolved. The ratio of the number of shoot tips over the volume of enzyme solution can be between 10 and 16, preferably 13. The dish with shoot tip pieces in enzyme solution is incubated for at 25° C.-30° C., preferably 28° C., in darkness on a shaker set to about 50 rpm. After overnight incubation the protoplast suspension is purified using an iodixanol density gradient (adapted from Optiprep Application Sheet C18; Purification of Intact Plant Protoplasts; Axis-Shield USA, 10 Commerce Way, Norton, Mass. 02776). After the density gradient centrifugation, the band with purified protoplasts is removed together with about 5 mL W5 medium (Frigerio et al., 1998). The protoplast density and yield are determined with a hemocytometer. The protoplasts density is adjusted to 1×10^6/mL in BN medium containing 2 mg/L 2,6-dichlorobenzonitrile (cellulose synthase inhibitor), and the protoplasts are cultured in darkness at 30° C. for about 16 h.
1. Fast growing cell suspensions are used, preferably three days after their last subculture. 1.5 mL settled cell volume is transferred to about 15 ml BN medium, which after 2 h is replaced with enzyme solution. 2. The protoplast purification is followed immediately by the GRON/PEG treatment.
The protoplast suspension is mixed with an equal volume of W5 medium, transferred to a 50 mL centrifuge tube, and centrifuged for 10 min at the lowest setting of a clinical centrifuge (about 50×g). The supernatant is removed and replaced with TM medium (Klaus, S. Markerfreie transplastome Tabakpflanzen (Marker-free transplastomic tobacco plants). PhD Dissertation, 2002, Ludwig-Maximilians-Universitát Múnchen, 109 pp), adjusting the protoplast density to 5×10^6/mL. Aliquots of 100 μL containing 5×10^5 protoplasts each are distributed into 12 mL round bottom centrifuge tubes. GRONs (such as those shown in Table 14) targeted at one or more mutations in one or both of the mitochondrial and plastidal PPX genes are then introduced into the protoplasts using a PEG treatment. To introduce the GRONs into the protoplasts, 12.5 μg GRON dissolved in 25 μL purified water and 125 μL of a polyethylene glycol solution (5 g PEG MW 1500, 638 mg mannitol, 207 mg CaNO3×4H2O and 8.75 mL purified water; pH adjusted to about 9.0) is added. After a 10-30 min incubation on ice, the protoplast-PEG suspension is washed with W5 medium and resuspended in medium BN. The suspension is kept overnight in darkness at room temperature.
One day after the GRON introduction, protoplasts are embedded in calcium alginate. […]

Cc1nn(-c2cc(NS(C)(=O)=O)c(Cl)cc2Cl)c(=O)n1C(F)F [sulfentrazone]
Microcallus formation (7.8 μM sulfentrazone): No
Microcallus formation (15.6 μM sulfentrazone): No
Microcallus formation (31.25 μM sulfentrazone): No
Microcallus formation (62.5 μM sulfentrazone): No
# Of calli in 3 beads, # (0.5 μM): 45
# Of calli in 3 beads, % (0.5 μM): 30%
# Of calli in 3 beads, # (0.6 μM): 8
# Of calli in 3 beads, % (0.6 μM): 6.9%
# Of calli in 3 beads, # (0.7 μM): 2
# Of calli in 3 beads, % (0.7 μM): 1.7%
# Of calli in 3 beads, # (0.8 μM): 0.0
# Of calli in 3 beads, % (0.8 μM): 0.0%
# of calli in beads, # (0.5 μM): 38
# of calli in beads, % (0.5 μM): 30.2%
# of calli in beads, # (0.6 μM): 12
# of calli in beads, % (0.6 μM): 9.6%
# of calli in beads, # (0.7 μM): 7
# of calli in beads, % (0.7 μM): 5.6%
# of calli in beads, # (0.8 μM): 0.0
# of calli in beads, % (0.8 μM): 0.0%
concentration sufficient to kill all protoplast-derived cells (shoot tip-derived protoplasts and cell suspension): 7.8 µM

From patent US11111500B2, “Mutated protoporphyrinogen IX oxidase (PPX) genes” (CIBUS US LLC, priority 2010, dated 2021)
